53 molecules from patent publication US7737143B2, “Substituted pyrazines as kinase inhibitors” (YM Biosciences Australia Pty Ltd, priority 2003, dated 2010) can be followed below.

Each structure is given as a SMILES string.

One test concerns the target T1, human JAK2 (Homo sapiens, UniProt O60674).
T1 construct: The kinase domain of human JAK2 was amplified from U937mRNA; His tag (pFastBac HTc vector; nickel chelate purification) (N); made in house; host or cells: baculovirus; Sf9 for virus, High Five insect cells for production
Nature of the test: JAK kinase assay (ELISA or Alphascreen), Jak2. Format: biochemical. As to conditions: standard conditions, read-out: Jak2 inhibition of enzyme activity. The source says:
The kinase domain of human JAK2 was amplified from U937mRNA using the polymerase chain reaction with the following primers: […]
JAK2 PCR products were cloned into the pFastBac HTc expression vector (Gibco) via the Sal I and Not I sites. The JAK2 plasmid was then transformed into competent DHL10Bac cells (Gibco), and the recombinant baculovirus produced prepared for transfection into Sf9 insect cells.
(§1) Baculovirus preparations from each of the JAK family members were infected into five litres of High Five cells (Invitrogen) grown in High Five serum free medium (Invitrogen) to a cell density of approximately 1-2×10^6 cells/ml. Cells are infected with virus at a MOI of 0.8-3.0. Cells were harvested and lysed. JAK kinase domains were purified by affinity chromatography on a Probond (Invitrogen) nickel chelate affinity column.
(§2) Kinase assays were performed either in a 96 well capture-based ELISA assay or in 384 well Optiplates (Packard) using an Alphascreen Protein Tyrosine Kinase kit. In either case using approximately 15 μg of affinity purified PTK domain in the presence of 50 mM HEPES, pH 7.5, 10 mM MgCl2 150 mM NaCl and 10 μM-1 mM ATP. The biotinylated substrate biotin-EGPWLEEEEEAYGWMDF-NH2 (final concentration 5 μM) was used as substrate. In the ELISA assay tyrosine phosphorylation was quantitated following transfer to an avidin coated ELISA plate using peroxidase-linked anti-phospho-tyrosine antibody PY20. In the Alphascreen assay, Alphascreen phosphotyrosine acceptor beads followed by streptavidin donor beads were added under subdued light. The ELISA plates were read on a BMG Fluorostar, the Alphascreen plates were read on a Packard Fusion Alpha. Inhibitors were added to the assays fifteen minutes prior to the addition of ATP. Inhibitors were added in aqueous DMSO, with DMSO concentrations never exceeding 1%.
On the technique in general: ELISA stands for enzyme-linked immunosorbent assay.

Another test has as its target T2, human JAK3 (Homo sapiens, UniProt P52333).
T2 construct: The kinase domain of human JAK3 was amplified from U937mRNA; His tag (pFastBac HTb vector; nickel chelate purification) (N); made in house; host or cells: baculovirus; Sf9 for virus, High Five insect cells for production
Kind of test: JAK kinase assay (ELISA or Alphascreen), Jak3. Type of test: biochemical. To be noted: standard conditions, read-out: Jak3 inhibition of enzyme activity.
Text: The kinase domain of human JAK3 was amplified from U937mRNA using the polymerase chain reaction with the following primers: […]
JAK3 PCR products were cloned into the pFastBac HTb expression vector (Gibco) via the Xho I and Kpn I sites. The JAK3 plasmid was then transformed into competent DH10Bac cells (Gibco), and the recombinant baculovirus produced prepared for transfection into Sf9 insect cells.
as §1, §2

T1 sequence (O60674 849-1124 limits assumed): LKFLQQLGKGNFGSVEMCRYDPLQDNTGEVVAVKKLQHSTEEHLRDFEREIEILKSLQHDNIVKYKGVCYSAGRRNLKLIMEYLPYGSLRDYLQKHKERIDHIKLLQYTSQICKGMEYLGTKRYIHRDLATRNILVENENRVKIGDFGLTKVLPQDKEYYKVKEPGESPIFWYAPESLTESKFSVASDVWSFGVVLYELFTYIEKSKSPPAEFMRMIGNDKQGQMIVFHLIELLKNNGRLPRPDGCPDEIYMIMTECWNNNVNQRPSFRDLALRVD
T2 sequence (P52333 822-1111 limits assumed): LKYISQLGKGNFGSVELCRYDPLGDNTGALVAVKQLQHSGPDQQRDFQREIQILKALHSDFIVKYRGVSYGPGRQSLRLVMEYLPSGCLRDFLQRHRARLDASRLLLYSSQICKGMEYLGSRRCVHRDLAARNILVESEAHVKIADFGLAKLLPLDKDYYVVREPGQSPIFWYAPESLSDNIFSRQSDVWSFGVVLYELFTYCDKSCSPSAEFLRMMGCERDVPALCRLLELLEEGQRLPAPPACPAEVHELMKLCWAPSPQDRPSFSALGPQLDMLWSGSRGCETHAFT

For `CC(Nc1cncc(-n2cnc3cc(C#N)ccc32)n1)c1cccc(OC(F)(F)F)c1` (stereo not shown), the inhibition at 20 µM on human JAK2 and on human JAK3 was less than 50% in each case.

In the case of `CC(Nc1cncc(-n2cnc3cc(CNCCN(C)C)ccc32)n1)c1ccc(F)cc1` (stereo not shown), the inhibition at 20 µM at human JAK2 and on human JAK3 was less than 50% in each case.

For the molecule `N#Cc1ccc2c(c1)ncn2-c1cncc(NC2Cc3ccccc3C2)n1`, the inhibition at 20 µM on human JAK2 and on human JAK3 was less than 50% throughout.

As to `C[C@H](Nc1cncc(-n2cnc3ncccc32)n1)c1ccccc1`, the inhibition at 20 µM on human JAK2 and on human JAK3 was less than 50% in each case.

For the molecule `C[C@H](Nc1cncc(-n2cnc3cccnc32)n1)c1ccc(F)cc1`, the inhibition at 20 µM at human JAK2 and at human JAK3 was less than 50% in each case.

Regarding `N#Cc1ccc2c(c1)ncn2-c1cncc(N2CCc3ccccc3C2)n1`, the inhibition at 20 µM on human JAK2 and at human JAK3 was less than 50% throughout.

On to `CC(Nc1cncc(-n2cnc3ccccc32)n1)c1cccc(Cl)c1` (stereo not shown), for which the inhibition at 20 µM at human JAK2 and at human JAK3 was less than 50% in each case.

On to `CC(Nc1cncc(-n2cnc3cc(C#N)ccc32)n1)c1cccc(C(F)(F)F)c1` (stereo not shown), for which the inhibition at 20 µM on human JAK2 and on human JAK3 was less than 50% in each case.

As to `CC(Nc1cncc(-n2cnc3ccncc32)n1)c1ccc(F)cc1` (stereo not shown), the inhibition at 20 µM at human JAK2 and on human JAK3 was less than 50% in each case.

Turning to `COc1cccc2c1CCC2Nc1cncc(-n2cnc3cc(C#N)ccc32)n1` (stereo not shown), the inhibition at 20 µM at human JAK2 and on human JAK3 was less than 50% in each case.

On to `CC(Nc1cncc(-n2cnc3ccc(C#N)cc32)n1)c1ccc(F)c(F)c1` (stereo not shown), for which the inhibition at 20 µM on human JAK2 and on human JAK3 was not below 50% each time.

Take `CC(Nc1cncc(-n2cnc3ccc(C#N)cc32)n1)c1cccc2ccccc12` (stereo not shown): the inhibition at 20 µM at human JAK2 and at human JAK3 was less than 50% each time.

As for `Cc1ncc(-n2cnc3ccc(C#N)cc32)nc1N[C@@H](C)c1ccccc1`, the inhibition at 20 µM on human JAK2 and on human JAK3 was not below 50% throughout.

Turning to `c1cncc(-c2cncc(-n3cnc4ccccc43)n2)c1`, the inhibition (commonly the relative decrease from the control value, in per cent) at 20 µM is not below 50% at human JAK2 and less than 50% at human JAK3.

Regarding `CC(Nc1cncc(-n2cnc3cc(C#N)ccc32)n1)c1ccccn1` (stereo not shown), the inhibition at 20 µM on human JAK2 is not below 50%; at human JAK3, less than 50%.

With `CC(Nc1cncc(-n2cnc3ccc(C#N)cc32)n1)c1ccccn1` (stereo not shown), the inhibition at 20 µM at human JAK2 and on human JAK3 was not below 50% each time.

Regarding `N#Cc1ccc2ncn(-c3cncc(NC4Cc5ccccc5C4)n3)c2c1`, the inhibition at 20 µM at human JAK2 and at human JAK3 was less than 50% in each case.

`COc1ccc2c(c1)CCC2Nc1cncc(-n2cnc3cc(C#N)ccc32)n1` (stereo not shown): the inhibition at 20 µM at human JAK2 and on human JAK3 was less than 50% in each case.

As for `CC(Nc1cncc(-n2cnc3ccc(C#N)cc32)n1)c1ccc(F)c(Cl)c1` (stereo not shown), the inhibition at 20 µM at human JAK2 and on human JAK3 was not below 50% each time.

`Cc1ccc([C@H](C)Nc2cncc(-n3cnc4cc(C#N)ccc43)n2)cc1`: the inhibition at 20 µM on human JAK2 was not below 50%; at human JAK3, less than 50%.

As to `CC(Nc1cncc(-n2cnc3cc(C#N)ccc32)n1)c1cccc(F)c1` (stereo not shown), the inhibition at 20 µM on human JAK2 and on human JAK3 was not below 50% in each case.

Take `C[C@H](Nc1cncc(-n2cc3ccccc3n2)n1)c1ccc(F)cc1`: the inhibition at 20 µM on human JAK2 and at human JAK3 was less than 50% throughout.

For the molecule `N#Cc1ccc2ncn(-c3cncc(NC4CCc5cc(Br)ccc54)n3)c2c1` (stereo not shown), the figures for the inhibition at 20 µM on human JAK2 and on human JAK3 were less than 50% and not below 50%, respectively.

In the case of `C[C@@H](c1ccccc1)N(C)c1cncc(-n2cnc3cc(C#N)ccc32)n1`, the inhibition at 20 µM at human JAK2 and at human JAK3 was less than 50% each time.

For `C[C@H](Nc1cncc(-n2cnc3ccc(CN4CCC(O)CC4)cc32)n1)c1ccc(F)cc1`, the inhibition at 20 µM at human JAK2 was not below 50%; on human JAK3, less than 50%.

Consider `CC(Nc1cncc(-n2cnc3ccc(C#N)cc32)n1)c1cccc(C(F)(F)F)c1` (stereo not shown), for which the results for the inhibition at 20 µM at human JAK2 and on human JAK3 were not below 50% and less than 50%, respectively.

For `N#Cc1ccc2c(c1)ncn2-c1cncc(NC2CCc3cc(Br)ccc32)n1` (stereo not shown), the inhibition at 20 µM at human JAK2 and at human JAK3 was less than 50% in each case.

`C[C@H](Nc1cncc(-n2cnc3ccc(C#N)cc32)n1)c1ccccc1`: the inhibition at 20 µM on human JAK2 and at human JAK3 was not below 50% each time.

As for `N#Cc1ccc2ncn(-c3cncc(Cl)n3)c2c1`, the inhibition at 20 µM on human JAK2 and at human JAK3 was less than 50% throughout.

Regarding `CCCC(Nc1cncc(-n2cnc3ccccc32)n1)c1ccccc1` (stereo not shown), the inhibition at 20 µM on human JAK2 was not below 50%; at human JAK3, less than 50%.

On to `C[C@H](Nc1cncc(-n2cnc3ncccc32)n1)c1ccc(F)cc1`, for which the inhibition at 20 µM at human JAK2 and at human JAK3 was less than 50% in each case.

`CC(Nc1cncc(-n2cnc3ccccc32)n1)c1ccc(-n2ccnc2)cc1` (stereo not shown): the inhibition at 20 µM on human JAK2 and at human JAK3 was less than 50% in each case.

On to `CC[C@H](Nc1cncc(-n2cnc3ccc(C#N)cc32)n1)c1ccccc1`, for which the inhibition at 20 µM on human JAK2 and at human JAK3 was not below 50% each time.

For the molecule `N#Cc1ccc2ncn(-c3cncc(NC4CCc5cc(F)ccc54)n3)c2c1` (stereo not shown), the inhibition at 20 µM on human JAK2 and on human JAK3 was less than 50% throughout.

As for `C[C@H](Nc1cncc(-n2cnc3cc(NS(=O)(=O)c4ccccc4)ccc32)n1)c1ccccc1`, the inhibition at 20 µM at human JAK2 and at human JAK3 was not below 50% in each case.

`C[C@H](Nc1cncc(-n2cnc3ccc(CN4CCN(CCN)CC4)cc32)n1)c1ccc(F)cc1`: the inhibition at 20 µM at human JAK2 and on human JAK3 was less than 50% throughout.

Turning to `CCN(CC)Cc1ccc2ncn(-c3cncc(NC(C)c4ccc(F)cc4)n3)c2c1` (stereo not shown), the inhibition at 20 µM on human JAK2 and on human JAK3 was less than 50% throughout.

In the case of `c1ccc2c(c1)ncn2-c1cncc(-c2ccncc2)n1`, the inhibition at 20 µM at human JAK2 is not below 50%; on human JAK3, less than 50%.

Turning to `CC1CC(Nc2cncc(-n3cnc4ccc(C#N)cc43)n2)c2ccccc21` (stereo not shown), the inhibition at 20 µM on human JAK2 and at human JAK3 was less than 50% in each case.

`COc1cccc2c1CCC2Nc1cncc(-n2cnc3ccc(C#N)cc32)n1` (stereo not shown): the inhibition at 20 µM on human JAK2 is less than 50%; on human JAK3 it was not below 50%.

`N#Cc1ccc2ncn(-c3cncc(N4CCc5ccccc5C4)n3)c2c1`: the inhibition at 20 µM at human JAK2 and at human JAK3 was less than 50% throughout.

With `CC(Nc1cncc(-n2cnc3ccc(C#N)cc32)n1)c1cccc(OC(F)(F)F)c1` (stereo not shown), the inhibition at 20 µM at human JAK2 and at human JAK3 was less than 50% each time.

As to `C[C@H](Nc1cncc(-n2cnc3ccc(CN4CCCCC4)cc32)n1)c1ccc(F)cc1`, the inhibition at 20 µM at human JAK2 and at human JAK3 was not below 50% each time.

`C[C@H](Nc1cncc(-n2ncc3ccccc32)n1)c1ccc(F)cc1`: the inhibition at 20 µM at human JAK2 and at human JAK3 was less than 50% in each case.

`CC(Nc1cncc(-n2cnc3cc(C#N)ccc32)n1)c1cc(F)cc(F)c1` (stereo not shown): the inhibition at 20 µM was not below 50% on human JAK2 and less than 50% on human JAK3.

In the case of `CC(Nc1cncc(-n2cnc3cc(C#N)ccc32)n1)c1ccc(F)c(F)c1` (stereo not shown), the inhibition at 20 µM on human JAK2 and at human JAK3 was not below 50% each time.

`N#Cc1ccc2ncn(-c3cncc(N[C@H]4CCCc5ccccc54)n3)c2c1`: the inhibition at 20 µM on human JAK2 and on human JAK3 was less than 50% throughout.

On to `CC(Nc1cncc(-n2cnc3ccc(CN4CCN(C)CC4)cc32)n1)c1ccc(F)cc1` (stereo not shown), for which the inhibition at 20 µM on human JAK2 and on human JAK3 was less than 50% throughout.

In the case of `N#Cc1ccc2c(c1)ncn2-c1cncc(NC2CCc3ccc(O)cc32)n1` (stereo not shown), the inhibition at 20 µM on human JAK2 and at human JAK3 was less than 50% throughout.

As for `C[C@H](Nc1cncc(-n2cnc3ccc(-c4nn[nH]n4)cc32)n1)c1ccc(F)cc1`, the inhibition at 20 µM on human JAK2 is not below 50%; on human JAK3, less than 50%.

As for `C[C@H](Nc1cncc(-n2cnc3cc(C#N)ccc32)n1)c1ccccc1`, the inhibition at 20 µM at human JAK2 and on human JAK3 was not below 50% each time.

Turning to `O=S(=O)(Nc1ccc(-c2cncc(-n3cnc4ccccc43)n2)cc1)c1ccccc1`, the inhibition at 20 µM at human JAK2 and at human JAK3 was not below 50% each time.

Take `C[C@H](Nc1cncc(-n2cnc3cccnc32)n1)c1ccccc1`: the inhibition at 20 µM on human JAK2 and on human JAK3 was less than 50% in each case.
